Values after ≈ are worked out from the molar mass of the structure shown. Where two headings read alike, the source gives them in different places.
Key:
Cytochrome P450 1A2 = Cytochrome P450 1A2 (Homo sapiens (Human), UniProt P05177); type: in vitro ADME
Description: (§1) Rapid screening for cytochrome P450 inhibitors is part of the current paradigm for avoiding development of drugs likely to give clinical pharmacokinetic drug-drug interactions and associated toxicities. There are commercially available assays for such screenings. For example, BD Biosciences (http://www.bdbiosciences.com/index.shtml) provides a technical bulletin describing a detailed, step-by-step procedure for the performance of the high throughput cytochrome P450 inhibition testing method.

Hepatic clearance, human = type: in vitro ADME
Description: (§2) Clearance of drug by the liver will depend on the rate of delivery of drug to the liver (the hepatic blood flow) and on the efficiency of removal of drug which is presented to it (the extraction ratio). The hepatic clearance of compounds can be determined by standard methods known in the art. Such methods are described in, for example, Naritomi, Y; Terashita, S; Kagayama, A; Sugiyama, Y. “Utility of Hepatocytes in Predicting Drug Metabolism: Comparison of Hepatic Intrinsic Clearance in Rats and Humans in Vivo and in Vitro.” 2003, 31 (5): pages 580-588.

P. falciparum Dd2 = assay: Inhibition of in vitro P. falciparum culture, [3H]-hypoxanthine uptake, Dd2; type: cell-based; details: Plasmodium falciparum; for EC50: DD2, Table 2b, read-out: Dd2 EC50; for IC50: DD2, Table 3, [3H]-hypoxanthine uptake, read-out: Dd2 IC50
Method in brief: (§3)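 Parasite growth inhibition measured as relative reduction of [3H]-hypoxanthine uptake in in vitro cultures. Values from non-linear regression fit, using relative growth velocity in place of product-formation rate.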

Cytochrome P450 3A4 = Cytochrome P450 3A4 (Homo sapiens (Human), UniProt P08684); assay: Cytochrome P450 inhibition, 3A4; type: in vitro ADME
Description: as §1

Log D measurement = type: physicochemical; details: octanol/water; read-out: LogD
Description: Many standard techniques are known in the art to establish the distribution coefficient of a compound between two particular solvents. The following description is one such technique that could be used to determine the distribution coefficient: The shake-flask method, which consists of dissolving some of the compound in a volume of octanol and water, then physically shaking the mixture and allowing the two solvents to fully separate. The concentration of the compound in each solvent is then measured. The most common method of measuring the distribution of the solute is by HPLC or UV/Vis spectroscopic techniques.

Cytochrome P450 2D6 = Cytochrome P450 2D6 (Homo sapiens (Human), UniProt P10635); assay: Cytochrome P450 inhibition, 2D6; type: in vitro ADME
Description: as §1

Solubility measurement = type: physicochemical; details: aqueous buffer, thermodynamic from solid; read-out: Solubility
Description: Many standard techniques are known in the art to establish the solubility of a compound in a particular solvent. The following description is one such technique that could be used to determine the solubility: Equilibrium solubility measurements start with the solid form of the compound (crystalline form preferred). The powder is physically mixed with an aqueous buffer (defined pH) until equilibrium is reached. Either centrifugation or filtration can be used to separate the solution from the remaining solid. The amount dissolved in the solution can be determined by any one of many known methods including HPLC or UV/Vis spectroscopic techniques.

pfDHODH = pfDHODH (Plasmodium falciparum (isolate 3D7), UniProt Q08210); assay: DHODH chromogen reduction (DCIP) assay, pfDHODH; type: biochemical, P. falciparum; details: read-out: pfDHODH IC50
P. falciparum 3D7 = assay: Inhibition of in vitro P. falciparum culture, [3H]-hypoxanthine uptake, 3D7; type: cell-based; details: Plasmodium falciparum; for EC50: 3D7, Table 2b, read-out: 3D7 EC50; for IC50: 3D7, Table 3, [3H]-hypoxanthine uptake, read-out: 3D7 IC50
Method in brief: as §3

Cytochrome P450 2C19 = Cytochrome P450 2C19 (Homo sapiens (Human), UniProt P33261); assay: Cytochrome P450 inhibition, 2C19; type: in vitro ADME
Description: as §1

Permeability = type: in vitro ADME; details: Caco-2
Description: Permeability assays using the Caco-2 colon carcinoma cell line are being used throughout the pharmaceutical industry to estimate the ability of potential drug compounds to cross the intestinal epithelium. Caco-2 cell permeability studies are performed using Caco-2 cell monolayers grown on microporous membranes in multiwell insert systems. With the inserts suspended in the wells of multiwell plates, test compounds can be added to either the upper (apical) or lower (basolateral) chamber to measure permeability in the absorptive (apical to basolateral) or secretive (basolateral to apical) directions. Samples are then taken from the opposite chamber at various time intervals to measure the amount of test compound that has crossed the cell monolayer. A representative method to generate permeability data similar to that in Table 3 can be found in Alsenz, J; Haenel, E. “Development of a 7-Day, 96-Well Caco-2 Permeability Assay with High-Throughput Direct UV Compound Analysis.” Pharmaceutical Research 2003 20(12): p 1961-1969.
Parallel artificial membrane permeability assay (PAMPA) utilizes a simple phospholipid-coated filter disc to measure membrane permeability. It was developed as an alternative to the low throughput. Caco-2 cell permeability assay used to correlate passive permeability with in vivo oral absorption. A representative publication disclosing this method is Kerns, E H; Di, L; Petusky, S; Farris, M; Ley, R; Jupp, P. “Combined application of parallel artificial membrane permeability assay and Caco-2 permeability assays in drug discovery.” J. Pharma Sci. 2004, 93 (6), pages 1440-53.
Cell culture methods (e.g. Caco-2, HT-29 and MDC) and physicochemical methods such as PAMPA and immobilized artificial membrane (IAM) columns are known in the art and can be used to obtain data such as that in Table 3. Hidalgo, I J; “Assessing the absorption of new pharmaceuticals.” Curr Top Med. Chem. 2001 November; 1(5): p 385-401.

Cytochrome P450 2C9 = Cytochrome P450 2C9 (Homo sapiens (Human), UniProt P11712); assay: Cytochrome P450 inhibition, 2C9; type: in vitro ADME
Description: as §1

Hepatic clearance, rat = type: in vitro ADME
Description: as §2

hsDHODH = hsDHODH (Homo sapiens (Human), UniProt Q02127); assay: DCIP assay, hsDHODH; type: biochemical; details: Table 3; DCIP assay, 20 nM hsDHODH; read-out: hsDHODH IC50
Description: Type 2 DHODH activity was monitored with either the direct assay measuring the formation of orotate or via a chromogen reduction assay using DCIP. Although the extinction coefficient and absorption wavelength are preferable for the chromogen reduction assay, the inorganic electron acceptor DCIP can be utilized by DHODH as the final electron acceptor in lieu of CoQn when the endogenous substrate is at a low concentration. As such, the direct assay was used to measure the binding affinity of pfDHODH to CoQD and L-DHO. The enzymatic reaction was performed by varying the L-DHO concentration (1-400 μM) or CoQD concentration (1-200 μM) while keeping the other substrate constant and in excess. The formation of orotate was measured continuously at 296 nm (ε296=4.3 mM^−1 cm^−1). Inhibition of DHODH by small molecules was evaluated using the chromogen based assay with a final substrate concentration of 200 μM L-DHO, 18 μM CoQD, and 100 μM DCIP, unless otherwise noted. The reduction of DCIP was monitored at 600 nm (ε600=18.8 mM^−1 cm^−1).
Substrate specificity and enzyme inhibition data was analyzed with GraphPad Prism Version 4 for Windows (GraphPad Software). Kinetic constants were calculated by non-linear regression fitting of the data to the Michaelis-Menten equation [36]. IC50 values were determined by non-linear regression fitting of the data to Equation 1: […]

[1] = Table 3, DCIP assay, 20 nM pfDHODH

Sequence of Cytochrome P450 3A4 (P08684 whole entry): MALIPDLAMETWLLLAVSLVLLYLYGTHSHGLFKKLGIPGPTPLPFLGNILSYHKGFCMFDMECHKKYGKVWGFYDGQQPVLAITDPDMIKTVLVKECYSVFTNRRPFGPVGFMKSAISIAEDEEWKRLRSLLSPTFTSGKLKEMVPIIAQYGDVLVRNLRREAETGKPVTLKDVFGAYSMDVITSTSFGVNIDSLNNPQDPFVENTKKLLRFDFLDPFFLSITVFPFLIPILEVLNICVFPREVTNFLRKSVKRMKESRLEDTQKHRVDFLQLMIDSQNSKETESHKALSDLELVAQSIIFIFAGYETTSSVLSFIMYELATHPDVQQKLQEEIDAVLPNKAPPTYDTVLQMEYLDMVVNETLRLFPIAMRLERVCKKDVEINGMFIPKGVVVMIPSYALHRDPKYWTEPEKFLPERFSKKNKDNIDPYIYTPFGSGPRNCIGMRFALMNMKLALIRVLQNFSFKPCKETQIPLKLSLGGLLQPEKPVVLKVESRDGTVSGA
Sequence of Cytochrome P450 1A2 (P05177 whole entry): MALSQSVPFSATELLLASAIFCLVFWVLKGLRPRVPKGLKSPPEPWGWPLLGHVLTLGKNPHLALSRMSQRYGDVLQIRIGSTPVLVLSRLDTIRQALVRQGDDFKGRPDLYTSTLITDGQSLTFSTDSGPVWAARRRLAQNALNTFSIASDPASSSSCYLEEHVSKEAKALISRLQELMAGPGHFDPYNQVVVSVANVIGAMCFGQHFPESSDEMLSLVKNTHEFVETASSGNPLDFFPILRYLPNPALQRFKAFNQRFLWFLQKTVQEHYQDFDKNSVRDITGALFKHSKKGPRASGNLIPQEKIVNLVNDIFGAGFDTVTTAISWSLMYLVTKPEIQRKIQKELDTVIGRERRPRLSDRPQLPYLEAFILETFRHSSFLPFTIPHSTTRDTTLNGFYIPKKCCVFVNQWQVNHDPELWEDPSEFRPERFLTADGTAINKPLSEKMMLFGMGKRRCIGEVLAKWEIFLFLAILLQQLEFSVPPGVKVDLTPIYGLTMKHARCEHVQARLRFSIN
Sequence of pfDHODH (Q08210 159-565 limits assumed): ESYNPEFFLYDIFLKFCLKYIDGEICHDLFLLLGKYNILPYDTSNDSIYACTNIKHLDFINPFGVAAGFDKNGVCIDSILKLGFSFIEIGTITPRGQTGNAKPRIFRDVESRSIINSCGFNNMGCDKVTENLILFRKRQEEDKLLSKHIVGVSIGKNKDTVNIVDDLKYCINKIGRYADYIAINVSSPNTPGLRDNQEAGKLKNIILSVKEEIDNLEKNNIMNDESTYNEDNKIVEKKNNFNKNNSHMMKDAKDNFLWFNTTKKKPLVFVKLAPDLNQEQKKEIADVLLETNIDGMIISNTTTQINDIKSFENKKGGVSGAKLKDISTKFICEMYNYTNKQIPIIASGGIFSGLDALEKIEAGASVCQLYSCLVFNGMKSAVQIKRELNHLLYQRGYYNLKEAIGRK
Sequence of Cytochrome P450 2C19 (P33261 whole entry): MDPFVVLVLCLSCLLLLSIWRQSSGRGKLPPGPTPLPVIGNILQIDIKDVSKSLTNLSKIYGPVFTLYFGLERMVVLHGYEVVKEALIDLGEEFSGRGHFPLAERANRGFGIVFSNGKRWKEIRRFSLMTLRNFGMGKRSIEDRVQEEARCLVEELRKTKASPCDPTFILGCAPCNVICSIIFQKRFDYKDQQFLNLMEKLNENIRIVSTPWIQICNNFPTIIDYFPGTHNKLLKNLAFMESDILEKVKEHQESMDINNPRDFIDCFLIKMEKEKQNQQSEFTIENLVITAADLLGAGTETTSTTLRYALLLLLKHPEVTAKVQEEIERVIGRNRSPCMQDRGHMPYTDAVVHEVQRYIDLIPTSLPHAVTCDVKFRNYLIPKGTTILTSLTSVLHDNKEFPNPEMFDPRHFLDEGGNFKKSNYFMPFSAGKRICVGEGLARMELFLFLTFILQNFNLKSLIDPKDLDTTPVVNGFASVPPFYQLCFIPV
Sequence of Cytochrome P450 2C9 (P11712 whole entry): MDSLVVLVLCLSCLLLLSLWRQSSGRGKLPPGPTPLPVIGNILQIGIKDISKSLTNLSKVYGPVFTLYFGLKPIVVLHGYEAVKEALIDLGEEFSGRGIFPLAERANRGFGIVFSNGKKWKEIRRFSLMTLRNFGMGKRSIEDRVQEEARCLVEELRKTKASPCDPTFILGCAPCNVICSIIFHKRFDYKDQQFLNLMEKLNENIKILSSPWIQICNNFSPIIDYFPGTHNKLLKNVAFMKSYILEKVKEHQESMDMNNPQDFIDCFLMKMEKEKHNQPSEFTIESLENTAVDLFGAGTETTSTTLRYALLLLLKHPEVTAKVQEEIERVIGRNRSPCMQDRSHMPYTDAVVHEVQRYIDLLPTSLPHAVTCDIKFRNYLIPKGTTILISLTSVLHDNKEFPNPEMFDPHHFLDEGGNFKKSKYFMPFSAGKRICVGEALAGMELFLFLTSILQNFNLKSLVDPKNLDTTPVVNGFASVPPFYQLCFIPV
Sequence of Cytochrome P450 2D6 (P10635 whole entry): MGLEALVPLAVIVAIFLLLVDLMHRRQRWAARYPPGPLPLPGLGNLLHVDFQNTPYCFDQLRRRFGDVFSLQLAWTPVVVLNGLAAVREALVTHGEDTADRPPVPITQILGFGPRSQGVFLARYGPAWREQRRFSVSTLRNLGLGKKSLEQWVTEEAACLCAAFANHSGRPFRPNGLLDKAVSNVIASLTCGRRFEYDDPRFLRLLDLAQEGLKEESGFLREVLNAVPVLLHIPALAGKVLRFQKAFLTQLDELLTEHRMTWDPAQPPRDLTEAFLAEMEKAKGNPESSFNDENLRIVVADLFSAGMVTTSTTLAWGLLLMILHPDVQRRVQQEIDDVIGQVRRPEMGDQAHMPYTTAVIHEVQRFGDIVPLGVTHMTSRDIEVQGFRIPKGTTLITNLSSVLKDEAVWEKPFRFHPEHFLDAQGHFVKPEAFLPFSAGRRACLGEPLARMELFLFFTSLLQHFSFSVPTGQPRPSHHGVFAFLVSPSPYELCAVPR
Sequence of hsDHODH (Q02127 29-395 limits assumed): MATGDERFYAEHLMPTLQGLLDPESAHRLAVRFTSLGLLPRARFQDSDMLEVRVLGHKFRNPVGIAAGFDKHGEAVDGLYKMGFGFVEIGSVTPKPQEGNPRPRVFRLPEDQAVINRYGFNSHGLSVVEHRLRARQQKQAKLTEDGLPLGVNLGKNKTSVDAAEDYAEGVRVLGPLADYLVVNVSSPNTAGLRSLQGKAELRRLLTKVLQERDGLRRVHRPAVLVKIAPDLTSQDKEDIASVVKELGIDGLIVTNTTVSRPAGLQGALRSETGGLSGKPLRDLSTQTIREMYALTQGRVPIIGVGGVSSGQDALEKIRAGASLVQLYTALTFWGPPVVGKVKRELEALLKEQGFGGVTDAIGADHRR

| SMILES | Cytochrome P450 Inhibition, 1A2 (Cytochrome P450 1A2) [in 1A2 μM] | microsomal CLint (Hepatic clearance, human) [µL/min/mg] | EC50 (P. falciparum Dd2) [µM] | IC50 (P. falciparum Dd2) [µM] | Cytochrome P450 Inhibition, 3A4 (Cytochrome P450 3A4) [in 3A4 μM] | logD (Log D measurement) | Cytochrome P450 Inhibition, 2D6 (Cytochrome P450 2D6) [in 2D6 μM] | solubility (Solubility measurement) [µg/mL] | IC50 (pfDHODH; Table 2b) [µM] | IC50 (pfDHODH; [1]) [µM] | EC50 (P. falciparum 3D7) [µM] | IC50 (P. falciparum 3D7) [µM] | Cytochrome P450 Inhibition, 2C19 (Cytochrome P450 2C19) [in 2C19 μM] | Papp (Permeability) [×10⁻⁶ cm/s] | Cytochrome P450 Inhibition, 2C9 (Cytochrome P450 2C9) [in 2C9 μM] | microsomal CLint (Hepatic clearance, rat) [µL/min/mg] | IC50 (hsDHODH) [µM] |
| --- | --- | --- | --- | --- | --- | --- | --- | --- | --- | --- | --- | --- | --- | --- | --- | --- | --- |
| CCCNC(=O)c1ccc(N2CCN(C)CC2)s1 [Compound 10, 5-(4-methylpiperazin-1-yl)-N-propylthiophene-2-carboxamide] | >5.0 | 8 | > 10 | > 10 | >5.0 | 1.5 | >5.0 | 24 (≈ 89.8 µM) | > 250 | > 30 | > 10 | > 10 | >5.0 | 11 | >5.0 | 16 | – |
| CCCNC(=O)c1ccc(-n2cccn2)s1 [Compound 9, N-propyl-5-(1H-pyrazol-1-yl)thiophene-2-carboxamide] | >5.0 | 59 | > 10 | > 10 | >5.0 | 2.2 | >5.0 | > 30 | > 250 | > 30 | > 10 | > 10 | >5.0 | 22 | >5.0 | 104 | > 30 |
| CCCNC(=O)c1ccc(N2CCCCC2)s1 [Compound 8, 5-(piperidin-1-yl)-N-propylthiophene-2-carboxamide] | >5.0 | > 72 | > 10 | > 10 | >5.0 | 3.2 | >5.0 | > 30 | 230 | > 30 | > 10 | > 10 | >5.0 | 43 | >5.0 | > 119 | > 30 |

— patent US8703811B2, “Small molecule inhibitors of Plasmodium falciparum dihydroorotate dehydrogenase” (Genzyme Corporation, priority 2008, dated 2014)
